Results on 14 compounds are retold here after ChEMBL document CHEMBL4330184, “Aryl Substituted Benzimidazolones as Potent HIV-1 Non-Nucleoside Reverse Transcriptase Inhibitors” (ACS Med Chem Lett, 2019).

Data set [1] is described as follows: Cytotoxicity against HEK293T cells assessed as reduction in cell viability after 48 hrs by CellTiter 96 aqueous one solution assay. The conditions noted are these: human. Format: cell-based, HEK-293T.
The test system of data set [2] is Human immunodeficiency virus 1. In words: Selectivity ratio of IC50 for HIV1 reverse transcriptase Y181C mutant in HIV1 infected HEK293T cells to IC50 for wild-type HIV1 reverse transcriptase in HIV1 infected HEK293T cells.
In data set [3] the test system is Human immunodeficiency virus 1. In words: Selectivity ratio of IC50 for HIV1 reverse transcriptase K103N mutant in HIV1 infected HEK293T cells to IC50 for wild-type HIV1 reverse transcriptase in HIV1 infected HEK293T cells.
Data set [4] concerns Human immunodeficiency virus 1. In words: Selectivity ratio of IC50 for HIV1 reverse transcriptase V106M mutant in HIV1 infected HEK293T cells to IC50 for wild-type HIV1 reverse transcriptase in HIV1 infected HEK293T cells.

The CC50 is the concentration that lowers cell viability or growth by half. Consider `CCn1c(=O)[nH]c2cccc(Oc3cccc4ccccc34)c21`, for which the 50% cytotoxic concentration (CC50) at 48 h in data set [1] was determined as 31.3 µM.
As to `CC1(C)OC(=O)Nc2cccc(Oc3cc(Cl)cc(C#N)c3)c21`, the CC50 at 48 h in data set [1] was 82.7 µM.
As for `CCn1c(=O)[nH]c2cccc(Oc3cc(C#N)cc(C#N)c3)c21`, the CC50 at 48 h in data set [1] was 96.6 µM.
Regarding `CCC(c1ccccc1)n1c(=O)[nH]c2ccc(Cl)cc21` (racemic), the Ratio IC50 in data set [2] and in data set [3] was above 10 each time. In addition, in data set [1], the half-maximal cytotoxic concentration (CC50) at 48 h was found to be 55 µM.
For `Cn1c(=O)[nH]c2cccc(Oc3cc(Cl)cc(C#N)c3)c21`, in data set [4], the Ratio IC50 is above 10. Also, the CC50 at 48 h in data set [1] turned out to be 53.4 µM.
As to `CCn1c(=O)[nH]c2cccc(Oc3cc(C)cc(C)c3)c21`, in data set [1], the CC50 at 48 h was determined as 7.16 µM.
As to `CCn1c(=O)[nH]c2cccc(Oc3cc(C#N)cc(/C=C/C#N)c3)c21`, in data set [1], the CC50 at 48 h is 9.7 µM.
In the case of `CCCn1c(=O)[nH]c2cccc(Oc3cc(Cl)cc(C#N)c3)c21`, the CC50 at 48 h in data set [1] worked out at 24.8 µM.
On to `CCn1c(=O)[nH]c2cccc(Oc3ccccc3)c21`, for which the CC50 at 48 h in data set [1] turned out to be 55 µM.
In the case of `CCn1c(=O)[nH]c2cccc(Oc3cc(Cl)cc(C#N)c3)c21`, the Ratio IC50 in data set [4] was above 10. The CC50 at 48 h in data set [1] was 24.1 µM.
Turning to `CCn1c(=O)[nH]c2cccc(Oc3ccnc(C#N)c3)c21`, the CC50 at 48 h in data set [1] was above 100 µM.
Turning to `Cc1ccnc2c1NC(=O)c1cccnc1N2C1CC1` [NEVIRAPINE], the CC50 at 48 h in data set [1] was determined as 92.7 µM.
`CCn1c(=O)[nH]c2cccc(Oc3cc(C#N)ccn3)c21`: the cytotoxic concentration (CC50) at 48 h in data set [1] is above 100 µM.
`CCn1c(=O)[nH]c2cccc(Oc3ccnc(Cl)c3)c21`: the CC50 at 48 h in data set [1] was 95.1 µM.
